Assay: xn = mol fraction of the nth substance listed
Conditions: 101 kPa, Liquid

CC(O)CO (stereo not given) [1,2-propanediol] + CCCCOC(C)=O
Conditions | mass density, 298.15 K [kg/m3] | mass density, 303.15 K [kg/m3] | mass density, 308.15 K [kg/m3] | mass density, 313.15 K [kg/m3] | speed of sound, 298.15 K [m/s] | speed of sound, 308.15 K [m/s] | viscosity, 298.15 K [mPa·s] | viscosity, 308.15 K [mPa·s]
x2 = 0.0445 | 1020.01 | 1016.1 | 1012.28 | 1008.28 | 1467 | 1429 | 31.87 | 18.51
x2 = 0.1493 | 993.58 | 989.44 | 985.19 | 980.98 | 1407 | 1372 | 16.1 | 10.19
x2 = 0.2487 | 972.28 | 968.01 | 963.42 | 959.09 | 1355 | 1322 | 8.935 | 6.083
x2 = 0.3511 | 953.32 | 948.95 | 944.08 | 939.65 | 1310 | 1280 | 5.175 | 3.762
x2 = 0.446 | 937.92 | 933.47 | 928.39 | 923.85 | 1276 | 1246 | 3.295 | 2.523
x2 = 0.4973 | 930.34 | 925.83 | 920.66 | 916.07 | 1260 | 1230 | 2.638 | 2.071
x2 = 0.5491 | 923.15 | 918.58 | 913.33 | 908.68 | 1247 | 1217 | 2.141 | 1.719
x2 = 0.6504 | 910.32 | 905.62 | 900.23 | 895.46 | 1226 | 1194 | 1.489 | 1.241
x2 = 0.7495 | 899.15 | 894.34 | 888.84 | 883.97 | 1210 | 1178 | 1.106 | 0.947
x2 = 0.8489 | 889.19 | 884.29 | 878.67 | 873.72 | 1200 | 1165 | 0.87 | 0.759
x2 = 0.946 | 880.55 | 875.62 | 869.86 | 864.9 | 1194 | 1155 | 0.727 | 0.64

CC(O)CO (stereo not given) [1,2-propanediol] + CCOC(C)=O
Conditions | mass density, 298.15 K [kg/m3] | mass density, 303.15 K [kg/m3] | mass density, 308.15 K [kg/m3] | mass density, 313.15 K [kg/m3] | speed of sound, 298.15 K [m/s] | speed of sound, 308.15 K [m/s] | viscosity, 298.15 K [mPa·s] | viscosity, 308.15 K [mPa·s]
x2 = 0.0451 | 1024.21 | 1020.33 | 1016.53 | 1012.46 | 1463 | 1429 | 32.32 | 19.38
x2 = 0.1493 | 1005.58 | 1001.36 | 997.21 | 992.76 | 1401 | 1371 | 16.84 | 11.71
x2 = 0.2515 | 988.63 | 984.09 | 979.68 | 974.9 | 1343 | 1317 | 9.278 | 7.28
x2 = 0.3514 | 973.2 | 968.36 | 963.71 | 958.63 | 1294 | 1268 | 5.396 | 4.653
x2 = 0.4393 | 960.46 | 955.37 | 950.52 | 945.17 | 1255 | 1229 | 3.463 | 3.184
x2 = 0.5 | 952.1 | 946.85 | 941.84 | 936.31 | 1232 | 1205 | 2.597 | 2.469
x2 = 0.5497 | 945.49 | 940.12 | 934.99 | 929.3 | 1215 | 1186 | 2.075 | 2.014
x2 = 0.6505 | 932.74 | 927.13 | 921.75 | 915.78 | 1186 | 1153 | 1.357 | 1.351
x2 = 0.7495 | 921.01 | 915.21 | 909.59 | 903.37 | 1164 | 1128 | 0.93 | 0.928
x2 = 0.8499 | 909.87 | 903.92 | 898.1 | 891.68 | 1149 | 1109 | 0.661 | 0.645
x2 = 0.9487 | 899.61 | 893.57 | 887.61 | 881.09 | 1140 | 1098 | 0.491 | 0.459

CC(O)CO (stereo not given) [1,2-propanediol] + COC(C)=O
Conditions | mass density, 298.15 K [kg/m3] | mass density, 303.15 K [kg/m3] | mass density, 308.15 K [kg/m3] | mass density, 313.15 K [kg/m3] | speed of sound, 298.15 K [m/s] | speed of sound, 308.15 K [m/s] | viscosity, 298.15 K [mPa·s] | viscosity, 308.15 K [mPa·s]
x2 = 0.0465 | 1027.72 | 1023.69 | 1020.09 | 1015.96 | 1472 | 1434 | 34.29 | 19.21
x2 = 0.1493 | 1016.8 | 1012.28 | 1008.63 | 1004.03 | 1429 | 1391 | 20.44 | 11.62
x2 = 0.251 | 1006.23 | 1001.34 | 997.58 | 992.61 | 1388 | 1350 | 12.35 | 7.189
x2 = 0.3512 | 995.96 | 990.75 | 986.86 | 981.59 | 1350 | 1313 | 7.576 | 4.553
x2 = 0.4412 | 986.79 | 981.3 | 977.29 | 971.76 | 1318 | 1281 | 4.915 | 3.063
x2 = 0.4906 | 981.76 | 976.11 | 972.05 | 966.37 | 1301 | 1264 | 3.887 | 2.478
x2 = 0.5499 | 975.7 | 969.85 | 965.73 | 959.87 | 1281 | 1244 | 2.939 | 1.932
x2 = 0.6483 | 965.55 | 959.34 | 955.15 | 949 | 1249 | 1211 | 1.859 | 1.294
x2 = 0.7483 | 955.01 | 948.45 | 944.2 | 937.77 | 1218 | 1178 | 1.176 | 0.875
x2 = 0.8499 | 943.97 | 937.1 | 932.79 | 926.1 | 1189 | 1147 | 0.744 | 0.598
x2 = 0.9447 | 933.26 | 926.21 | 921.8 | 914.96 | 1164 | 1119 | 0.489 | 0.425

CC(=O)OCCC(C)C [3-methylbutyl ethanoate] + CC(O)CO
Conditions | mass density, 298.15 K [kg/m3] | mass density, 303.15 K [kg/m3] | mass density, 308.15 K [kg/m3] | mass density, 313.15 K [kg/m3] | speed of sound, 298.15 K [m/s] | speed of sound, 308.15 K [m/s] | viscosity, 298.15 K [mPa·s] | viscosity, 308.15 K [mPa·s]
x1 = 0.0455 | 1017.21 | 1013.29 | 1009.48 | 1005.69 | 1460 | 1425 | 31.61 | 18.4
x1 = 0.1457 | 988 | 983.78 | 979.64 | 976.02 | 1398 | 1369 | 16.42 | 10.43
x1 = 0.2483 | 963.53 | 959.11 | 954.73 | 951.27 | 1346 | 1320 | 8.962 | 6.168
x1 = 0.3508 | 943.13 | 938.57 | 934.01 | 930.68 | 1304 | 1281 | 5.224 | 3.864
x1 = 0.452 | 926.02 | 921.33 | 916.63 | 913.4 | 1270 | 1248 | 3.269 | 2.574
x1 = 0.4959 | 919.36 | 914.62 | 909.86 | 906.68 | 1258 | 1235 | 2.721 | 2.196
x1 = 0.5551 | 911.01 | 906.21 | 901.38 | 898.24 | 1243 | 1220 | 2.165 | 1.802
x1 = 0.6523 | 898.71 | 893.81 | 888.88 | 885.8 | 1223 | 1199 | 1.56 | 1.357
x1 = 0.7497 | 887.92 | 882.93 | 877.91 | 874.87 | 1211 | 1182 | 1.191 | 1.075
x1 = 0.8495 | 878.28 | 873.2 | 868.1 | 865.12 | 1202 | 1169 | 0.961 | 0.893
x1 = 0.9426 | 870.47 | 865.34 | 860.17 | 857.24 | 1197 | 1160 | 0.831 | 0.788

OCCOCCO [diethylene glycol] + CCOC(C)=O
Conditions | mass density, 298.15 K [kg/m3] | mass density, 303.15 K [kg/m3] | mass density, 308.15 K [kg/m3] | mass density, 313.15 K [kg/m3] | speed of sound, 298.15 K [m/s] | speed of sound, 308.15 K [m/s] | viscosity, 298.15 K [mPa·s] | viscosity, 308.15 K [mPa·s]
x2 = 0.0441 | 1103.89 | 1100.06 | 1096.4 | 1092.83 | 1557 | 1527 | 26.54 | 14.6
x2 = 0.1491 | 1081.32 | 1077.52 | 1073.43 | 1069.24 | 1501 | 1467 | 19.33 | 10.14
x2 = 0.2504 | 1059.83 | 1055.84 | 1051.57 | 1047.06 | 1444 | 1410 | 13.79 | 7.076
x2 = 0.3491 | 1039 | 1034.73 | 1030.34 | 1025.66 | 1393 | 1358 | 9.631 | 4.946
x2 = 0.4487 | 1017.94 | 1013.34 | 1008.79 | 1004.01 | 1346 | 1311 | 6.504 | 3.42
x2 = 0.5011 | 1006.8 | 1002.03 | 997.36 | 992.53 | 1322 | 1287 | 5.226 | 2.808
x2 = 0.5485 | 996.65 | 991.74 | 986.94 | 982.07 | 1301 | 1267 | 4.257 | 2.345
x2 = 0.6492 | 974.85 | 969.64 | 964.5 | 959.48 | 1261 | 1226 | 2.692 | 1.591
x2 = 0.7505 | 952.44 | 946.98 | 941.47 | 936.2 | 1223 | 1188 | 1.645 | 1.068
x2 = 0.8492 | 930.05 | 924.36 | 918.52 | 912.88 | 1189 | 1151 | 0.988 | 0.719
x2 = 0.9445 | 907.81 | 901.89 | 895.89 | 889.73 | 1157 | 1116 | 0.587 | 0.487

Reference: the NIST ThermoML archive (doi:10.1021/je0340248)
